Measurements: patent US5475010A, “7'-amino-naphthazarin antibiotic derivatives” (Gruppo Lepetit S.p.A., priority 1991, dated 1995)
In brackets after ≈: the same amount, converted by molar mass. Where two headings read alike, the source gives them in different places.

Assays:
[1] = system: Gram-positive and Gram-negative bacteria; conditions: in vitro, known / U.S. Pat. No. 3,914,257, cited from earlier work
[2] = system: fungi, including filamentous fungi (e.g., Trichophyton mentarophytes) and yeasts (e.g., Candida albicans); conditions: in vitro; U.S. Pat. No. 3,914,257; cited from earlier work
[3] = system: Propionibacterium acnes ATCC 6919; experiment: MIC by broth microdilution, Propionibacterium acnes; format: cell-based; conditions: Cutibacterium acnes, ATCC6919; Table 2; internal code 1014; approx. 10^4 cfu/ml; Wilkins-Chalgren broth; 37° C., 48 h, N2-CO2-H2 (80:10:10); read-out: MIC
[4] = system: Bacteroides fragiles ATCC 9689; experiment: MIC by broth microdilution, Bacteroides fragilis; format: cell-based; conditions: ATCC9689, Table 2, internal code 1010, approx. 10^4 cfu/ml, Wilkins-Chalgren broth, 37° C., 48 h, N2-CO2-H2 (80:10:10)
[5] = system: Escherichia coli SKF 12140; experiment: MIC by broth microdilution, Escherichia coli; format: cell-based; conditions: SKF12140
[6] = system: Tricophyton mentagrophytes; experiment: MIC by broth microdilution, Trichophyton mentagrophytes; format: cell-based; conditions: Table 2, internal code 634, 1% (v/v) suspension of mycelia and conidia, YM broth, 30° C., 72 h, air, read-out: MIC
[7] = system: Streptococcus pyogenes C 203; experiment: MIC by broth microdilution, Streptococcus pyogenes; format: cell-based; conditions: C203
[8] = system: Candida albicans SKF 2270; experiment: MIC by broth microdilution, Candida albicans; format: cell-based; conditions: Table 2; internal code 145; approx. 10^4 cfu/ml; buffered Yeast Nitrogen Base broth + glucose + L-asparagine; 37° C., 20-24 h, air
[9] = system: Neisseria gonorrhoeae ISM 68/126; experiment: MIC by broth microdilution, Neisseria gonorrhoeae; format: cell-based; conditions: ISM68/126, Table 2, internal code 997, approx. 10^4 cfu/ml, GC Base broth + 1% IsoVitaleX, 37° C., 48 h, 5% CO2
[10] = system: Haemophilus influenzae type b ATCC 19418; experiment: MIC by broth microdilution, Haemophilus influenzae; format: cell-based; conditions: ATCC19418, Table 2, internal code 970, approx. 10^4 cfu/ml, Brain Heart infusion broth + 1% Supplement C, 37° C., 48 h, 5% CO2
[11] = system: Staphilococcus aureus Tour; experiment: MIC by broth microdilution, Staphylococcus aureus Tour; format: cell-based; conditions: Iso-Sensitest broth, 37° C., 20-24 h, air
[12] = system: Pseudomonas aeruginosa ATCC 10145; experiment: MIC by broth microdilution, Pseudomonas aeruginosa; format: cell-based; conditions: ATCC10145, Table 2, internal code 4, approx. 10^4 cfu/ml, Iso-Sensitest broth, 37° C., 20-24 h, air
[13] = system: Staphilococcus epidermidis ATCC 12228; experiment: MIC by broth microdilution, Staphylococcus epidermidis; format: cell-based; conditions: ATCC12228, Table 2, internal code 147, approx. 10^4 cfu/ml, Iso-Sensitest broth, 37° C., 20-24 h, air, read-out: MIC
[14] = system: Streptococcus pneumonieae UC 41; experiment: MIC by broth microdilution, Streptococcus pneumoniae; format: cell-based; conditions: UC41, Table 2, internal code 44, approx. 10^4 cfu/ml, Todd Hewitt broth, 37° C., 20-24 h, air, read-out: MIC
[15] = system: Staphilococcus haemolyticus (clin. isolate); experiment: MIC by broth microdilution, Staphylococcus haemolyticus; format: cell-based; conditions: Table 2, internal code 602, approx. 10^4 cfu/ml, Iso-Sensitest broth, 37° C., 20-24 h, air, read-out: MIC
[16] = system: Enterococcus faecalis ATCC 7080; experiment: MIC by broth microdilution, Enterococcus faecalis; format: cell-based; conditions: ATCC7080
[17] = system: Proteus vulgaris X19H ATCC 881; experiment: MIC by broth microdilution, Proteus vulgaris; format: cell-based; conditions: ATCC881

Row | SMILES | antimicrobial activity against Gram-positive and Gram-negative bacteria [1] | antimicrobial activity against Gram-positive and Gram-negative bacteria ([1]; listed as purpuromycin) | activity against fungi [2] | MIC [3] [µg/mL] | MIC [4] [µg/mL] | MIC [5] [µg/mL] | MIC [6] [µg/mL] | MIC [7] [µg/mL] | MIC [8] [µg/mL] | MIC [9] [µg/mL] | MIC [10] [µg/mL] | MIC ([11]; Table 2, internal code 165, + 30% bovine serum) [µg/mL] | MIC ([11]; Table 2, internal code 165, inoculum 10^6 cfu/ml, read-out: MIC) [µg/mL] | MIC ([11]; Table 2, internal code 165, inoculum approx. 10^4 cfu/ml, read-out: MIC) [µg/mL] | MIC [12] [µg/mL] | MIC [13] [µg/mL] | MIC [14] [µg/mL] | MIC [15] [µg/mL] | MIC [16] [µg/mL] | MIC [17] [µg/mL]
1 | COC(=O)c1cc2cc3c(c(O)c2c(=O)o1)OC1(Cc2c(O)c4c(c(O)c2O1)C(=O)C(OC)=CC4=O)CC3O (centres unmarked) [Purpuromycin, purpuromycin] | known antimicrobial agents against Gram-positive and Gram-negative bacteria | active in vitro | active in vitro |  |  |  |  |  |  |  |  |  |  |  |  |  |  |  |  | 
2 | CNC1=CC(=O)c2c(O)c3c(c(O)c2C1=O)OC1(C3)CC(O)c2cc3cc(C(=O)OC)oc(=O)c3c(O)c2O1 (centres unmarked) [Example 14, 7'-methylamino purpuromycin] |  |  |  | 0.008 (≈ 0.0149 µM) | 0.03 (≈ 0.0558 µM) | > 128 | ≤ 0.13 | 0.03 (≈ 0.0558 µM) | 2 | 0.06 | 0.13 | 0.25 | 0.06 (≈ 0.112 µM) | 0.016 (≈ 0.0298 µM) | > 128 | 0.008 (≈ 0.0149 µM) | 0.016 (≈ 0.0298 µM) | 0.016 (≈ 0.0298 µM) | 0.03 (≈ 0.0558 µM) | > 128
